From paper PMC6095626, “Screening of the Pathogen Box for inhibitors with dual efficacy against Giardia lamblia and Cryptosporidium parvum” (PLoS Neglected Tropical Diseases, 2018)

What was measured:
[1] = test system: C. parvum (UGA1 Nluc expressing strain in HCT-8 cells); assay: microbe, parasite or virus in culture; type: cell-based, Cryptosporidium parvum; conditions: initial Pathogen Box screen, single concentration 10 µM, inhibition compared to DMSO wells
In short: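 Parasite growth quantified by NanoLuc luminescence from lysed infected HCT-8 cells, with EC50 fitted from dose curves. Compounds, single-dose 10 μM or serially diluted, were added to confluent 48 h monolayers before infection with bleached UGA1 Nluc oocysts.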

[2] = test system: G. lamblia trophozoites (luciferase expressing, WBC6); assay: microbe, parasite or virus in culture; type: cell-based, Giardia lamblia; conditions: initial Pathogen Box screen, single concentration 16 µM, inhibition compared to DMSO wells
In short: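 Incubation ran 24 h at 37 °C under anaerobic conditions, with compound added in equal volume to trophozoites (WBC6, luciferase-expressing, 250,000 cells/mL). Bioluminescence was the read-out, cross-checked by MOXI Z counts on a duplicate plate; metronidazole served as control (1:2 dilutions from 40 μM).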

| Structure (SMILES) | Crypto (10 uM) Mean % inhibition [1] | Giardia (16 uM) Mean % inhibition [2] |
| --- | --- | --- |
| O=C(COc1cccc(F)c1)Nc1nc(-c2ccccn2)cs1 [MMV676409] | 67% | X* (Mean or standard deviation are negative but not significantly different from the control to be a growth promoter) |
| CC(=O)NC[C@H]1CN(c2ccc(-c3ccc(CNCc4cn[nH]n4)cc3)c(F)c2)C(=O)O1 [MMV688327] | 33% | 21% |
| CCN(CC)CCCCCCNc1cc(OC)cc2c(C)ccnc12 [MMV000063] | 62% | 26% |
| c1ccc(-c2nc(NC3CCCCC3)cc(C3CC3)n2)nc1 [MMV021013] | 92% | 65% |
| CNC1C(OC2C(OC3C(O)C(O)C(N=C(N)N)C(O)C3N=C(N)N)OC(C)C2(O)C=O)OC(CO)C(O)C1O (centres unmarked) [MMV688994] | 47% | X* (Mean or standard deviation are negative but not significantly different from the control to be a growth promoter) |
| CCOc1ccccc1NC(C)C(=O)Nc1cc(C(F)(F)F)ccc1N1CCOCC1 (centres unmarked) [MMV407834] | X* (Mean or standard deviation are negative but not significantly different from the control to be a growth promoter) | 33% |
| Cc1cc(NCCc2ccccc2)nc(NC(=N)Nc2ccc(Cl)cc2)n1 [MMV021660] | X* (Mean or standard deviation are negative but not significantly different from the control to be a growth promoter) | 90% |
| O=C(c1cc2ccccc2o1)N1CCN(Cc2ccc3c(c2)OCO3)CC1 [MMV676520] | 51% | 0.776% |
| COc1ccc(Cn2cnc3c(-c4ccco4)nc(Cl)nc32)cc1 [MMV687170] | 77% | 40% |
| Nc1nc(N)c2c3c(sc2n1)CN(Cc1ccccc1)CC3 [MMV688345] | X* (Mean or standard deviation are negative but not significantly different from the control to be a growth promoter) | 16% |
| COc1cccc(OC)c1C(=O)Nc1ccc(Cl)c(-c2nc3ccccc3s2)c1 [MMV676472] | X* (Mean or standard deviation are negative but not significantly different from the control to be a growth promoter) | 28% |
| Cc1ccc2[nH]c3c(NCCN(C)C)ncnc3c2c1 [MMV006372] | 64% | 21% |
| Cc1nn(C)c(C)c1NS(=O)(=O)c1c(Cl)cc(-c2ccnc(N3CCNCC3)c2)cc1Cl [MMV688180] | 66% | 21% |
| CC1CC1C(=O)NC1CCN(CC2(c3ccccc3)CCCCC2)CC1 (centres unmarked) [MMV020120] | 66% | 2.27% |
| Cn1ncc2c(N3CCOCC3)nc(NCCc3c[nH]c4ccccc34)nc21 [MMV676382] | 83% | 60% |
| CNc1nnc(Sc2cnn(-c3ccccc3)c(=O)c2Cl)s1 [MMV688763] | 49% | X* (Mean or standard deviation are negative but not significantly different from the control to be a growth promoter) |
| NC(CC(=O)c1ccc(Cl)cc1Cl)C(Cl)(Cl)Cl (centres unmarked) [MMV676468] | X* (Mean or standard deviation are negative but not significantly different from the control to be a growth promoter) | 55% |
| CC(C)n1ncc2c(C(=O)NCC(c3cccs3)N3CCOCC3)cc(-c3ccccc3)nc21 (centres unmarked) [MMV676406] | X* (Mean or standard deviation are negative but not significantly different from the control to be a growth promoter) | 34% |
| Clc1ccc(-n2cc(COc3ccnc4ccccc34)nn2)cc1 [MMV675994] | 94% | 15% |
| Cc1ccc(NC(=O)c2cc(S(=O)(=O)NC(C)(C)C)ccc2C)nc1 [MMV020289] | X* (Mean or standard deviation are negative but not significantly different from the control to be a growth promoter) | 26% |
| CC(=O)N(CCN(C(=O)c1ccc(F)cc1)c1ccccc1)c1ccccc1 [MMV676064] | 28% | 28% |
| O=C(NCc1cc(Cl)cc(Cl)c1)c1c(C(F)(F)F)nc2ccccn12 [MMV687699] | 32% | 16% |
| CC(=O)N1CCc2cc3nc(C)cc(C)c3cc21 [MMV054312] | 59% | 45% |
| COc1ccc(N(CCc2cccc(C)n2)C(C)=O)cc1 [MMV675995] | 26% | 26% |
| Brc1c(-c2ccc3c(c2)OCO3)nc2ncccn12 [MMV676377] | X* (Mean or standard deviation are negative but not significantly different from the control to be a growth promoter) | 40% |

| Structure (SMILES) | Crypto (10 uM) Mean % inhibition [1] | Giardia (16 uM) Mean % inhibition [2] |
| --- | --- | --- |
| O=C(Nc1ccc(F)c(-c2nc3ncc(-c4ccccc4)cc3[nH]2)c1)N1CCCC1 [MMV688372] | 48% | 24% |
| CNC(=O)C1Cc2c([nH]c3cc(Cl)ccc23)C2(CCN(CCc3ccccc3)CC2)N1 (centres unmarked) [MMV031011] | 72% | 81% |
| Nc1nccc2ccc(-c3ccc4nccn4c3)cc12 [MMV023233] | X* (Mean or standard deviation are negative but not significantly different from the control to be a growth promoter) | 85% |
| O=C(NC1CCN(c2ccnc3ccccc23)C1)c1cccc(C(F)(F)F)c1 (centres unmarked) [MMV023388] | X* (Mean or standard deviation are negative but not significantly different from the control to be a growth promoter) | 86% |
| CCC(Sc1nc2ccccc2o1)C(=O)Nc1nccs1 (centres unmarked) [MMV676383] | 57% | 88% |
| c1cncc(NCc2ccc(-c3cc4ccncc4cc3OC3CCNCC3)s2)c1 [MMV023969] | 25% | 11% |
| CC[C@H](CO)NCCN[C@H](CC)CO [MMV687801] | 8% | X* (Mean or standard deviation are negative but not significantly different from the control to be a growth promoter) |
| CC(C)(C)c1cc(C(=O)Nc2cccnc2)cc(C(=O)Nc2cccnc2)c1 [MMV020982] | 67% | 10% |
| CC(C)C(NC(=O)Cc1cccc2ccccc12)C(=O)Nc1cccc(C#N)c1 (centres unmarked) [MMV020591] | 55% | 16% |
| CS(=O)(=O)N1CCC(Cn2nc(Cc3cccc4ccccc34)c3c(N)ncnc32)CC1 [MMV676050] | 79% | 18% |
| COc1cc(C(F)(F)F)nc2ccc(C)c(N)c12 [MMV047015] | 1.83% | 65% |
| N#CCN(CCCCN1CCN(c2ccc(F)cc2)CC1)C(=O)OCc1ccccc1 [MMV675997] | 56% | 29% |
| Cc1nnc(NC(=O)c2cn(-c3ccccc3)nc2-c2ccccc2C)o1 [MMV020320] | 91% | X* (Mean or standard deviation are negative but not significantly different from the control to be a growth promoter) |
| Nc1cccnc1Nc1ccc(Cl)cc1 [MMV676524] | 83% | 26% |
| CCn1ncc2c(NC3CCOCC3)c(CNC(=O)c3ccnn3C)c(C)nc21 [MMV026356] | 31% | 68% |
| CC(C)(C)C(O)C(Oc1ccc(-c2ccccc2)cc1)n1cncn1 (centres unmarked) [MMV688942] | X* (Mean or standard deviation are negative but not significantly different from the control to be a growth promoter) | 40% |
| O=C1COCc2ccc(Br)cc2N1Cc1ccc(C(F)(F)F)cc1 [MMV032995] | 41% | 38% |
| Clc1ccc(CCNc2cc(-c3ccccc3)nc3ncnn23)cc1 [MMV688889] | 51% | 65% |
| O=C1O[C@@H](COc2ccon2)CN1c1cc(F)c(C2=CCN(Cc3ccccc3)CC2)c(F)c1 [MMV687813] | 40% | 32% |
| CCOC(=O)c1noc(N)c1-c1ccccc1 [MMV1236379] | X* (Mean or standard deviation are negative but not significantly different from the control to be a growth promoter) | X* (Mean or standard deviation are negative but not significantly different from the control to be a growth promoter) |
| CS(=O)(=O)c1ccccc1C(=O)N(Cc1ccccc1)c1ccccc1 [MMV688798] | 46% | 9% |
| Cc1ccc2[nH]c(C3CCCNC3)c(-c3ccncc3)c2c1 (centres unmarked) [MMV024311] | 56% | 22% |
| COc1ccc(-c2cncc3ccc(C(=O)NCCCn4ccnc4)nc23)cc1 [MMV020670] | 42% | 19% |
| CCN(CC)CCCN1CCN(C(=O)c2cccc(-c3noc(C(F)(F)F)n3)c2)CC1 [MMV022236] | 38% | 8% |
